Test results from PubChem BioAssay (NCI).
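Method: 48-hour compound exposure of cells in 96-well plates, five concentrations, linear interpolation of endpoints. GI50 is the concentration that inhibits growth by half. TGI denotes the concentration required for complete inhibition of growth.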

Test system: MDA-MB-468 breast
Experiment: growth of human tumour cells (NCI), 48 h

CCOC(=O)c1cc2c(n1Cc1cc(OC)cc(OC)c1)-c1oncc1CCC2
GI50: 47.4 nM
TGI: > 100000 nM

CCc1ccc(-c2ccc(=O)n(-c3ccc(S(N)(=O)=O)cc3)n2)cc1
GI50: 3180 nM
TGI: > 100000 nM

O=S1(=O)N(Cc2ccccc2)[C@@H](Cc2ccccc2)C2O[C@H]2[C@H](Cc2ccccc2)N1Cc1ccccc1 (some centres undefined)
GI50: 274 nM
TGI: > 7500 nM

C=C1C(=O)O[C@H]2[C@H]1CC/C(CNS(=O)(=O)c1ccc3ccccc3c1)=C\CC[C@@]1(C)O[C@@H]21
GI50: 363 nM
TGI: 1620 nM

Fc1ccc(C2CC(c3cccc(Nc4ccncc4)c3)=NN2c2cc(Cl)cc(Cl)c2)cc1 (centres undefined)
GI50: 1760 nM
TGI: 3720 nM

COc1ccc(Nc2ccnc(NCCNc3ccnc4cc(Cl)ccc34)n2)cc1
GI50: 997 nM
TGI: 3220 nM

C[C@@H]1COCCN1c1nc(-c2cnc(N)cc2C(F)F)nc(N2[C@H](C)COC[C@@H]2C)n1
GI50: 185 nM
TGI: 1620 nM

CCOC(=O)c1c2c(n3ccc(NC(=O)OC(C)(C)C)cc13)C(=O)c1ncccc1C2=O
GI50: 1330 nM
TGI: 3820 nM

O=C(CCCCCCNC(=O)C(O)(O)C(F)(F)F)Nc1ncc(-c2ccc(Br)cc2)s1
GI50: 752 nM
TGI: 5350 nM

C=C1C(=O)O[C@H]2[C@H]1CC/C(CNC(=O)/C=C/c1cccc(OC)c1)=C\CC[C@@]1(C)O[C@@H]21
GI50: 485 nM
TGI: 2130 nM

CCN(CC)CCOc1ccc(Nc2ncc3cc(-c4c(Cl)cccc4Cl)c(=O)n(CCOC)c3n2)cc1
GI50: 1260 nM
TGI: 3990 nM

OCc1cccc(-c2ccc3ncc(-c4nc(NC5CC5)ncc4F)n3c2)c1
GI50: 250 nM
TGI: 603 nM

NC(=O)C(Br)CBr (centres undefined)
GI50: 1460 nM
TGI: 4350 nM

CCCCCCCCCCCCCC[P+](CCCCCC)(CCCCCC)CCCCCC
GI50: 36.6 nM
TGI: 175 nM

Nc1ccccc1NC(=O)CCCCCCC(=O)Nc1ccc2c(c1)/C(=C/c1ccc[nH]1)C(=O)N2
GI50: 1830 nM
TGI: > 100000 nM

O=C(Nc1ncc(Cc2ccccc2)s1)c1ccc2c(c1)OCCCO2
GI50: 413 nM
TGI: > 100000 nM

Nc1ccc(N=Nc2ccccc2)c(N)n1
GI50: 16200 nM
TGI: 60900 nM

NS(=O)(=O)c1ccc(C2C3=C(CCCC3=O)OC3=C2C(=O)c2ccccc2C3=O)cc1 (centres undefined)
GI50: 231 nM
TGI: 671 nM

COc1cc([C@@H]2c3cc4c(cc3C(Br)[C@H]3COC(=O)[C@H]23)OCO4)cc(OC)c1OC (some centres undefined)
GI50: 175 nM
TGI: 625 nM

N#Cc1cccc(C(=O)c2cnn(-c3ccc(F)cc3)c2N)c1
GI50: > 25000 nM
TGI: > 25000 nM

CSc1ccc(-c2cc(-c3ccc(NC(=O)CCCN4CCCC4)cc3)nc(-c3ccc(NC(=O)CCCN4CCCC4)cc3)c2)cc1
GI50: 1560 nM
TGI: 3030 nM

CNc1nc(C)c(-c2nc(Nc3cccc(S(N)(=O)=O)c3)ncc2F)s1
GI50: 35.4 nM
TGI: 116 nM

N#Cc1ccc(/C=N/NC(=O)c2[nH]c3ccc(Br)cc3c2-c2ccccc2)s1
GI50: 292 nM
TGI: 10300 nM

N#Cc1c2ccccc2c2n1-c1ccccc1OC(c1ccccc1)C2=O (centres undefined)
GI50: 3260 nM
TGI: 13100 nM

O=CN1N=C(c2ccc(Nc3ccnc4cc(Cl)ccc34)cc2)CC1c1ccccc1 (centres undefined)
GI50: 975 nM
TGI: 3150 nM

COc1cc(C(=O)/C=C/c2c(-c3ccc(F)cc3)nc3sc(C)cn23)cc(OC)c1OC
GI50: 2380 nM
TGI: > 100000 nM

Nc1nc2c(c3ncccc13)C(c1ccc(Cl)c(Cl)c1)Cc1ncccc1-2 (centres undefined)
GI50: 3250 nM
TGI: 11200 nM

Cn1c(=O)c(Oc2cccc(F)c2)cc2cnc(NC3CCOCC3)nc21
GI50: > 25000 nM
TGI: > 25000 nM

CCOCC(=O)N[C@H]1CCc2cc(OC)c(OC)c(OC)c2-c2ccc(SC)c(=O)cc21
GI50: < 10 nM
TGI: > 100000 nM

Cc1nc2cncc(C#Cc3cncc(C(=O)Nc4ccc(CN5CCN(C)CC5)c(C(F)(F)F)c4)c3)c2nc1C
GI50: 949 nM
TGI: 7340 nM

Cc1ccccc1S(=O)(=O)N1[C@H](c2ccc(Cl)cc2)C(C(=O)N[C@@H](Cc2ccccc2)C(N)=O)=C[C@@H]1C(C)(C)C
GI50: 4130 nM
TGI: 12500 nM

COc1ccc(-c2nsc3c2NC(=O)CC3c2ccc3c(c2)OCO3)cc1 (centres undefined)
GI50: 612 nM
TGI: 25900 nM

CCCCCCOc1ccc(/C=N/NC(N)=S)cc1
GI50: 6390 nM
TGI: 32700 nM

COc1ccc(Nc2ncccc2/C=C/C(=O)c2cc(OC)c(OC)c(OC)c2)cc1
GI50: 1150 nM
TGI: 2440 nM

O=C1c2ccccc2-c2nccc3cc(Cl)nc1c23
GI50: 230 nM
TGI: 602 nM

COc1cc2c(c(OC)c1OC)-c1ccc(NNC(=S)N(Cc3cccc(C[N+](Cc4cccc(CNC56CC7CC(CC(C7)C5)C6)c4)(Cc4cccc(CNC56CC7CC(CC(C7)C5)C6)c4)Cc4cccc(CN(C(=S)NNc5ccc6c(cc5=O)[C@@H](NC(C)=O)CCc5cc(OC)c(OC)c(OC)c5-6)C56CC7CC(CC(C7)C5)C6)c4)c3)C34CC5CC(CC(C5)C3)C4)c(=O)cc1[C@@H](NC(C)=O)CC2 (some centres undefined)
GI50: 657 nM
TGI: 1750 nM

Nc1c(C(=O)c2cccc(-c3ccc[n+]([O-])c3)c2)cnn1-c1ccc(F)cc1F
GI50: > 25000 nM
TGI: > 25000 nM

CCCCCCCCCCCCCCCC(=O)OCC1OC(n2cnc3c(=S)nc(N)[nH]c32)C(OC(=O)CCCCCCCCCCCCCCC)C1OC(=O)CCCCCCCCCCCCCCC (centres undefined)
GI50: 1390 nM
TGI: > 50000 nM

COc1cc2c(cc1OCCCOC1=C=C=C(c3ccc4c(c3)c3cc(-c5ccc(OCCCOc6cc7c(cc6OC)C(=O)N6CCC[C@H]6C=N7)cc5)ccc3n4S(=O)(=O)c3ccc(C)cc3)C=C1)N=C[C@@H]1CCCN1C2=O
GI50: 1040 nM
TGI: 3040 nM

O=c1[nH]cnc2c1nnn2C1OC(CO)C(O)C1O (centres undefined)
GI50: 577 nM
TGI: 22000 nM

Cc1[nH]c(C(=O)Nc2ccc(C(=O)N3CCNCC3)cc2OC(C)C)c(Cl)c1Cl
GI50: 1670 nM
TGI: 3180 nM

O=C1C2=C(C(=O)c3c(O)cccc31)C(c1ccco1)c1sc(=O)[nH]c1S2 (centres undefined)
GI50: 2010 nM
TGI: 6590 nM

COc1ccc(C(O)c2cc3c(N)c(C(=O)Nc4cccc(Cl)c4C)sc3nc2C)cc1 (centres undefined)
GI50: 742 nM
TGI: 1480 nM

COC(=O)Nc1nc2ccc(Oc3ccc(NC(=O)Nc4cccc(Br)c4)cc3)cc2[nH]1
GI50: 1290 nM
TGI: 6280 nM

CNC(=O)c1c(NC(=O)c2cccc(C(F)(F)F)c2)sc2c1CCC(=O)C2
GI50: 396 nM
TGI: 2300 nM

CN(C)c1ccc(C(=O)c2ccc(N(C)C)c(N)c2)cc1N
GI50: 781 nM
TGI: 4720 nM

CCN(CC)c1ccc(N=C2C=C(C(=O)Nc3ccc(S(C)(=O)=O)cc3)C(=O)c3ccccc32)c(C)c1
GI50: > 100000 nM
TGI: > 100000 nM

COc1ccc(C2=CC(c3cc(OC)c(OC)c(OC)c3)NC(=O)N2)cc1OC (centres undefined)
GI50: 3210 nM
TGI: 15100 nM

CN(C)C(=S)NN=C(c1ccccn1)c1ccccn1
GI50: < 10 nM
TGI: 24000 nM

CC1=C(C(=O)Nc2ccc3[nH]ncc3c2)C(c2ccc(F)cc2)NC(=O)N1 (centres undefined)
GI50: > 25000 nM
TGI: > 25000 nM

CC/C=C\C/C=C\C[C@H](O)C/C=C1/C(=O)C=C[C@H]1C/C=C\CCC(=O)OC
GI50: 1560 nM
TGI: 4740 nM

c1cc(C2CCCCC2)ccc1OCCCCCCN1CCNCC1
GI50: 1910 nM
TGI: 3670 nM
